Measurements as given in US12226449B2, “Materials and methods for the prevention of rheumatoid arthritis” (The University of Toledo, priority 2018, dated 2025).
“Also recorded” adds a separate entry of the source.

Key:
Format in all cases: cell-based
[1] = test system: human PBMCs; assay: ELISPOT assay of IFN-γ and IL-17 secreting cells; conditions: for effect on 14-3-3ζ-induced IFN-γ secreting cells / effect on 14-3-3ζ-induced IL-17 secreting cells: drug present during 14-3-3ζ incubation
Procedure: Cells were plated with 14-3-3ζ protein in a 96-well plate for 14 days at 37° C. in complete RPMI culture medium. Phytohemagglutinin (PHA) was used as a positive control. 10 μl MTT was added at a concentration of 5 mg/mL, and the plate was further incubated at 37° C. in the dark for 3 hours. Supernatant was then removed, and 100 μL DMSO was added for another hour before reading the absorbance at 570 nm using FLUOstar Omega microplate reader (BMG Labtech). For T cell differentiation, PBMCs were incubated with 1 μg/ml of 14-3-3ζ for 7 days followed by either the cellular staining for FACS analysis or ELISPOT as per manufacture's protocol. For testing the effect of drugs, prednisolone, prednisone, as well as TJU103, were used at 1 μg/ml concentration and cyclophosphamide was used at 0.1 μg/ml concentration.
The protocol was adopted from Immunospot kit from Cellular Technology Limited. In short, PBMCs incubated with 14-3-3ζ for 7 days were plated on the antibody coated ELISPOT plates. About 100,000 cells/well were added and incubated for 2 days at 37° C. followed by the developing protocol. Plates were read with a Quantihub ELISPOT plate reader and manually counted.

[2] = test system: human PBMCs; assay: PBMC proliferation, MTT assay; conditions: for effect on 14-3-3ζ-induced PBMC proliferation: inhibitor present during 14-3-3ζ incubation, BV02 5 nM, TJU103 1 μg/ml
Procedure: Blood from healthy donors was collected as per the approved IRB protocol. The protocol for isolation of PBMCs was previously reported. In short, whole blood was diluted with an equal volume of RPMI before layering on Ficoll-Paque PLUS in a 15 mL tube. Tubes were then centrifuged for 25 minutes with the brakes off at 950 g. PBMCs were collected from the layer between the plasma and Ficoll liquid. PBMCs were then washed twice with RPMI, with 7 min spins at 350×g to pellet the cells. Finally, cells were resuspended in complete RPMI before counting and plating. […] Phytohemagglutinin (PHA) was used as a positive control. 10 μl MTT was added at a concentration of 5 mg/mL, and the plate was further incubated at 37° C. in the dark for 3 hours. Supernatant was then removed, and 100 μL DMSO was added for another hour before reading the absorbance at 570 nm using FLUOstar Omega microplate reader (BMG Labtech). For T cell differentiation, PBMCs were incubated with 1 μg/ml of 14-3-3ζ for 7 days followed by either the cellular staining for FACS analysis or ELISPOT as per manufacture's protocol.

[3] = test system: human PBMCs; assay: T cell polarization of PBMCs by flow cytometry (CD4, CD366, IL-17, CD8, CD69); conditions: drug present during 14-3-3ζ incubation, prednisolone, prednisone, TJU103 1 μg/ml, cyclophosphamide 0.1 μg/ml, BV02 5 nM
Procedure: Cells were plated with 14-3-3ζ protein in a 96-well plate for 14 days at 37° C. in complete RPMI culture medium. Phytohemagglutinin (PHA) was used as a positive control. 10 μl MTT was added at a concentration of 5 mg/mL, and the plate was further incubated at 37° C. in the dark for 3 hours. Supernatant was then removed, and 100 μL DMSO was added for another hour before reading the absorbance at 570 nm using FLUOstar Omega microplate reader (BMG Labtech). For T cell differentiation, PBMCs were incubated with 1 μg/ml of 14-3-3ζ for 7 days followed by either the cellular staining for FACS analysis or ELISPOT as per manufacture's protocol. […] PBMCs incubated with 14-3-3ζ for 7 days at 37° C. were fixed in 2% paraformaldehyde for an hour, and washed with PBS. […] For surface staining, cells were stained in 50 μL PBS with 5 μl per million cells antibody for 30 minutes in the dark on ice. For intracellular staining, cells were permeabilized with Triton for 10-15 min. After staining, cells were washed with PBS and resuspended in 1 mL PBS for analysis. The following antibodies from Biolegend Inc. were used: […] Cells were sorted at FACSCanto II system (BD Biosciences) and analyzed using FlowJo software (version 10). A gate was created around an initial population of cells in the FSC-SSC plot, and this population of cells was further analyzed for CD4, CD366, and IL-17 expression. Unstained and isotype labelled cells were used as a control for setting the gates.

[4] = test system: human PBMCs; assay: ELISA of secreted (accumulated) cytokines of PBMCs; conditions: drug present during 14-3-3ζ incubation
[5] = test system: human PBMCs; assay: ELISPOT assay of IFN-γ and IL-17 secreting cells; conditions: PBMC treated with protein for 7 d

## O=C(NN=Cc1c[nH]c2ccccc12)c1ccncc1 [TJU103]
[1]
  effect on 14-3-3ζ-induced IFN-γ secreting cells: stronger decrease; also recorded: suppressed; also recorded: Inhibition
  effect on 14-3-3ζ-induced IL-17 secreting cells: less sensitive to inhibition
[1]; listed as TJU131
  effect on 14-3-3ζ-induced IFN-γ secreting cells: mild suppression
  effect on 14-3-3ζ-induced IL-17 secreting cells: mild suppression
[2]
  effect on 14-3-3ζ-induced PBMC proliferation: did not inhibit
[3]
  effect on 14-3-3ζ-induced CD366 positive CD4 cells (Th1): suppressed
  effect on 14-3-3ζ-induced IL-17 positive CD4 cells (Th17): suppressed
[4]
  effect on 14-3-3ζ-induced accumulated IL-17 level: no difference
  effect on IL-6 level: no difference
[4]; listed as TJU131
  effect on 14-3-3ζ-induced accumulated IL-17 level: no significant difference

## C[C@]12C=CC(=O)C=C1CC[C@@H]1[C@@H]2[C@@H](O)C[C@@]2(C)[C@H]1CC[C@]2(O)C(=O)CO [prednisolone]
[1]
  effect on 14-3-3ζ-induced IFN-γ secreting cells: Significant suppression; also recorded: strong inhibition
  effect on 14-3-3ζ-induced IL-17 secreting cells: significant suppression; also recorded: strong inhibition
[3]
  effect on 14-3-3ζ-induced CD366 positive CD4 cells (Th1): mild effect
  effect on 14-3-3ζ-induced IL-17 positive CD4 cells (Th17): significant suppression; also recorded: strongly inhibited
[3]; listed as Prednisolone
  effect on 14-3-3ζ-induced CD366 positive CD4 cells (Th1): suppressed
  effect on 14-3-3ζ-induced IL-17 positive CD4 cells (Th17): suppressed
[4]
  effect on 14-3-3ζ-induced accumulated IL-17 level: Significant suppression; also recorded: reproduced effect on accumulated IL-17
  effect on IL-6 level: bare minimum effect

## O=P1(N(CCCl)CCCl)NCCCO1 (stereo not drawn) [cyclophosphamide]
[1]
  effect on 14-3-3ζ-induced IFN-γ secreting cells: mild inhibition; also recorded: impacted only IFN-γ producing cells
[3]
  effect on 14-3-3ζ-induced CD366 positive CD4 cells (Th1): significant suppression; also recorded: mild inhibition
  effect on 14-3-3ζ-induced IL-17 positive CD4 cells (Th17): only milder inhibition; also recorded: no sufficient inhibition; also recorded: no effect

## C[C@]12C=CC(=O)C=C1CC[C@@H]1[C@@H]2C(=O)C[C@@]2(C)[C@H]1CC[C@]2(O)C(=O)CO [prednisone]
[1]
  effect on 14-3-3ζ-induced IFN-γ secreting cells: no effect
  effect on 14-3-3ζ-induced IL-17 secreting cells: no effect

## Cc1c(N2C(=O)c3ccc(C(=O)O)cc3C2=O)c(=O)n(-c2ccccc2)n1C [BV02]
[1]; BV02 present
  effect on PHA induced IFN-γ secreting cells: did not affect
  effect on PHA induced IL-17 secretion: partial inhibition
[1]
  effect on 14-3-3ζ-induced IFN-γ secreting cells: did not show an increase; also recorded: significant inhibition
  effect on 14-3-3ζ-induced IL-17 secreting cells: did not show an increase; also recorded: significant inhibition
[2]; BV02 present
  effect on PHA induced PBMC proliferation: no suppression; also recorded: did not affect
[2]
  effect on 14-3-3ζ-induced PBMC proliferation: no effect; also recorded: did not show any difference
[3]
  effect on 14-3-3ζ-induced CD366 positive CD4 cells (Th1): no effect; also recorded: did not affect
  effect on 14-3-3ζ-induced IL-17 positive CD4 cells (Th17): no effect; also recorded: did not affect

B1: 14-3-3ε: another 14-3-3 isoform, used for specificity and comparison (protein, UniProt P62258 1-255, looked up)
14-3-3 protein epsilon: MDDREDLVYQAKLAEQAERYDEMVESMKKVAGMDVELTVEERNLLSVAYKNVIGARRASWRIISSIEQKEENKGGEDKLKMIREYRQMVETELKLICCDILDVLDKHLIPAANTGESKVFYYKMKGDYHRYLAEFATGNDRKEAAENSLVAYKAASDIAMTELPPTHPIRLGLALNFSVFYYEILNSPDRACRLAKAAFDDAIAELDTLSEESYKDSTLIMQLLRDNLTLWTSDMQGDGEEQNKEALQDVEDENQ
[5]; listed as 14-3-3e
  number of IFN-γ and IL-17 secreting cells: not replaced
[5]; listed as 14-3-3 epsilon
  number of IFN-γ and IL-17 secreting cells: no significant effect
